{
  "source": "paper PMC11219860",
  "about": "“A chemogenetic approach for dopamine imaging with tunable sensitivity” (Nature Communications, 2024)",
  "key": {"[1]": {"system": "DRD1-MSNs", "experiment": "Whole-cell electrophysiology of DRD1-MSNs in dorsal striatum brain slices", "type": "cell-based, mouse", "description": "For experiments involving SKF38393 application, to identify DRD1 receptor (DRD1)-positive neurons in the dorsal striatum, DRD1:cre mice injected with AAV5-hSyn-dlox-ChrimsonR-tdTomato were used. 3–4 weeks after viral injection, mice were anesthetized with 5% isoflurane and euthanized by decapitation. […] Slices were kept at 34 °C for 10–20 minutes and then at room temperature until recordings. In the recording chamber, slices were superfused with ACSF at 30–32 °C. Patch pipettes (3–7 MΩ) were pulled from borosilicate glass pipettes (GC150T-10, Harvard Apparatus). The internal solution contained (in mM): potassium gluconate 130, MgCl2 4, MgATP 3.4, Na3GTP 0.1, creatine phosphate 10, HEPES 5, and EGTA 1.1. The membrane potential was measured using EPC 10 USB Patch Clamp Amplifiers (HEKA). The access resistance was monitored by a hyperpolarizing step of −10 mV. The identification of DRD1-positive neurons was performed by the presence of red fluorescence protein and photo-evoked current or potential (@2 Hz, 10 ms duration, 2 pulses or 500 ms continuous pulse. light source: Colibri 7, Zeiss; 630 nm wavelength, 1 mW). To assess the excitability of neurons, positive currents were injected (0–500 pA) and the number of action potentials was counted at each current step. To measure input resistance, negative currents were injected (−200 to 0 pA, every 50 pA, 500 ms), as previously described. The resting membrane potential was measured at 0 pA current input.\nAction potentials were evoked by current injection (50–500 pA, 500 ms) in current-clamped neurons. Neurons were recorded from in the presence of picrotoxin (100 µM), CGP55485 (0.3 µM), DNQX (10 µM), and MK801 (10 µM) to block GABAA, GABAB, AMPA and NMDA receptors, respectively. DA (10 µM) was applied to brain slices in the presence of cocaine (5 µM) to prevent reuptake."}, "[2]": {"system": "dLight1.3b", "experiment": "In vivo single-fiber photometry of dLight1.3b baseline in freely-moving mice", "set-up": "species or system mouse", "details": "DETQ 10 mg/kg i.p.", "description": "For combined locomotion/photometry experiments in the open field (OF) in tethered mice, a 50 × 50 cm arena was used. Fiber photometry was conducted using a Doric photometry rig combined with a filter/mirror minicube set (Doric Lenses), as above. […] Data were sampled at 122 Hz. […] Mice were habituated to the chamber for 3 consecutive days (30 minutes per day). On experimental days, locomotor activity was video recorded and synchronized with fiber photometry signal recording. […] The OF chamber was cleaned with ethanol and water between mice. Recording sessions were repeated at 48 hours intervals. Mouse behavior as well as photometry signals were analyzed with a custom-written MATLAB script. Mouse locomotion was computed using the body center point of the animal. The center zone of the arena was defined automatically during behavior data analysis as the 25 × 25 cm square with the central point aligned to the center of the open field. […] Videos were recorded with a Logitech C270 camera and analyzed with DeepLabCut (version 2.1.8.2)[84] on an existing open field network. Representative traces were generated with the Anymaze (v7.2) software (Stoelting Co.)."}, "[3]": {"system": "human DRD1 (hmDRD1)", "details": "cited from earlier work"}, "[4]": {"system": "5-HT2B", "set-up": "method as in Svensson et al., 2017; Hao et al., 2019", "details": "10 uM of DETQ; ref Svensson et al., 2017; Hao et al., 2019; cited from earlier work"}, "[5]": {"system": "14 other human targets (including D5, D2, Beta-1, Beta-2 and 5-HT6)", "set-up": "method as in Hao et al., 2019", "details": "at 10 uM; ref Hao et al., 2019; cited from earlier work"}, "[6]": {"set-up": "method as in Bruns et al., 2018", "details": "ref Bruns et al., 2018, cited from earlier work"}, "[7]": {"set-up": "method as in Rajagopal et al., 2024", "details": "ref Rajagopal et al., 2024, cited from earlier work"}, "[8]": {"system": "NAc DRD1-MSNs", "experiment": "Footshock-induced NAc DRD1-MSN activity (jGCaMP8m photometry)", "details": "DETQ 10 mg/kg; SCH-23390 0.1 mg/kg i.p.", "protocol": "Cue-reward paradigm (NAc recordings) was carried out in an operant chamber within a sound-attenuating box with low red light illumination (30 Lux). […] During the next session mice were trained to initiate reward delivery via licking. […] During expert sessions CS-US pairings were repeated 20 times per session ( ~ 30 min for each session). Mice underwent a total of 12 sessions for cue-reward learning. 10 minutes before each session drugs were injected i.p. […] The rewards were delivered from 10 to 40 min post vehicle or DETQ injection. Chambers and lick ports were sanitized with ethanol between mice. For all sessions, lick data and photometry recordings were simultaneously obtained; licking behaviour was detected by a capacity-based sensor. Latency to reward-anticipatory licking was calculated as the time between the CS and lick onset. The lick proportion was calculated as the percent time mice spent licking during CS presentation divided by the percent time mice spent licking during the rest of the session (without CS). […] Fiber photometry recordings were analyzed using custom-written Matlab scripts. […] Change in fluorescence, ΔF/F0 (%), was defined as (F-F0)/F0 x 100, where F represents the fluorescent signal (465-nm) at each time point. F0 was calculated by applying a least-squares linear fit (polyfit) to the 405-nm signal to align with the 465-nm signal. […]"}},
  "note": "Where two headings read alike, the source gives them in different places.",
  "data": [
    {"smiles": "C[C@H]1c2cccc(C(C)(C)O)c2C[C@H](CO)N1C(=O)Cc1c(Cl)cccc1Cl", "note": "[DETQ, 2-(2,6-dichlorophenyl)-1-((1S,3R)-3-(hydroxymethyl)-5-(2-hydroxypropan-2-yl)-1-methyl-3,4-dihydroisoquinolin-2(1H)-yl)ethan-1-one]", "values": [
      {"measurement": "number of action potentials: DA with versus without DETQ", "setting": "[1]; DA 10 µM, DETQ 200 nM", "value": "no significant difference"},
      {"measurement": "resting membrane potential or excitability of DRD1-MSNs", "setting": "[1]; DETQ 200 nM superfusion", "value": "No noticeable changes"},
      {"measurement": "increase in sensor baseline", "setting": "[2]; NAc", "value": "15–20 % ∆F/F0"},
      {"measurement": "increase in sensor baseline", "setting": "[2]; PFC", "value": "2–4 % ∆F/F0"},
      {"measurement": "Kb", "setting": "[3]", "value": 11.4, "unit": "nM"},
      {"measurement": "maximal potentiation of dopamine", "setting": "[3]; human clones, ref Hao et al., 2019, Wang et al., 2018", "value": "75-85%"},
      {"measurement": "in vitro potency as a D1PAM at the hD1 receptor", "setting": "[3]; ref Svensson et al., 2017, Hao et al., 2019", "value": 11, "unit": "nM"},
      {"measurement": "inhibition of ligand binding", "setting": "[4]", "value": 48, "unit": "%"},
      {"measurement": "activity in potentiator mode", "setting": "[5]", "value": "no activity was found"},
      {"measurement": "brain levels of the histamine metabolites", "setting": "[6]; hD1 mice, same dose", "value": "significant elevations"},
      {"measurement": "brain levels of the histamine metabolites", "setting": "[6]; wild type mice, 10 mg/kg PO", "value": "did not change"},
      {"measurement": "deficits in Novel Object Recognition and Social Interaction", "setting": "[7]; aged hD1 mice, PO 3-10 mg/kg", "value": "fully reversed these deficits"},
      {"measurement": "deficits in Novel Object Recognition and Social Interaction", "setting": "[7]; aged wild type mice", "value": "failed to reverse these deficits"},
      {"measurement": "footshock-induced activity in NAc DRD1-MSNs", "setting": "[8]", "value": "remained unaffected"}
    ]}
  ]
}
